Experimental findings from US5324742A, “Aldose reductase inhibitor obtained from Crucibulum sp. RF-3817” (Shionogi & Co., Ltd., priority 1990, dated 1994) are described below.

Entries after “also recorded” stand apart in the source; their conditions may differ.

For orientation: IC50 means the concentration that inhibits the measured activity by half. A low value points to greater potency in that assay.

The target of one data set is T1, aldose reductase (Rattus norvegicus, UniProt P07943).
T1 construct: A homogenate of rat lenses was used as an enzyme source; from tissue; host or cells: rat lens, supernatant of the homogenate after centrifugation
The data set can be described thus: Aldose reductase-inhibiting activity (rat lens homogenate supernatant, D,L-glyceroaldehyde substrate, TPNH coenzyme). Type of data set: biochemical. Particulars: 10 mM D,L-glyceroaldehyde, 0.1 mM TPNH, pH 6.2, 25° C., absorbance at 340 nm. The protocol: Aldose Reductase-Inhibiting Activity
A homogenate of rat lenses was used as an enzyme source, glyceroaldehyde as a substrate, and TPNH as a coenzyme. To a mixture of 0.1M phosphate buffer (pH 6.2), 0.4M sodium sulfate, 0.1 mM TPNH (reduced form of triphosphopyridine nucleotide), and 10 mM D, L-glyceroaldehyde, a supernatant obtained from the homogenate of rat lenses by centrifugation was added as an enzyme source, so that the change in absorbance at 340 nm became 0.02 units per minute at 25° C. The change in absorbance at 340 nm for initial one minute was measured at 25° C., and the inhibiting activity was determined.

A short description of another data set: Solubility in solvents. The note with it: for State: solubility in organic solvents: organic solvents such as ethyl acetate, acetone, methanol, and ethanol. Type of data set: physicochemical.

On aldose reductase, `CC(C(=O)O)C1Cc2c(cc3c(c2O)CN(C(CCC(=O)O)C(=O)O)C3=O)O1` (centres unmarked) [RD-01-A3] showed an IC50 of 11.9 µM. Besides, the “State: solubility in organic solvents” value in “Solubility in solvents” was “soluble”.

Regarding `CC(C(=O)O)C1Cc2c(cc3c(c2O)CN(CC(=O)O)C3=O)O1` (centres unmarked) [RD-01-A4], in the data set “Solubility in solvents”, the “State: solubility in organic solvents” value is listed as “soluble”. Moreover, the Solubility entry in the data set “Solubility in solvents” (solvents: ethyl acetate, DMSO, methanol, ethanol, chloroform, ether, petroleum ether) was “soluble in ethyl acetate, DMSO, methanol, and ethanol; also recorded: slightly soluble in chloroform and ether; also recorded: insoluble in petroleum ether”.

On to `CC(C(=O)O)C1Cc2c(cc3c(c2O)CN(C(C)C(=O)O)C3=O)O1` (centres unmarked) [RD-01-A7], for which, in the data set “Solubility in solvents”, the “State: solubility in organic solvents” value was “soluble”.

Consider `CC(C(=O)O)C1Cc2c(cc3c(c2O)C(=O)NC3=O)O1` (centres unmarked) [RD-01-C1], for which the “State: solubility in organic solvents” value in “Solubility in solvents” is recorded as “soluble”.

As to `CC(C(=O)O)C1Cc2c(cc3c(c2O)C(=O)N(CC(=O)O)C3=O)O1` (centres unmarked) [RD-01-C2], the “State: solubility in organic solvents” value in the data set “Solubility in solvents” is reported as “soluble”.

As to `CC(C(=O)O)C1Cc2c(cc3c(c2O)C(=O)N(C(C)C(=O)O)C3=O)O1` (centres unmarked) [RD-01-C3], the “State: solubility in organic solvents” value in the data set “Solubility in solvents” is recorded as “soluble”.
